{
  "source": "patent US20190136254A1",
  "about": "“ALS Inhibitor Herbicide Tolerant Mutant Plants” (BASF SE, priority 2013, published 2019)",
  "molecules": {"B1": {"name": "P197S: AHAS protein comprising the P197S mutation (protein, listed as Arabidopsis thaliana)", "chain": "MAAATTTTTTSSSISFSTKPSPSSSKSPLPISRFSLPFSLNPNKSSSSSRRRGIKSSSPSSISAVLNTTTNVTTTPSPTKPTKPETFISRFAPDQPRKGADILVEALERQGVETVFAYPGGASMEIHQALTRSSSIRNVLPRHEQGGVFAAEGYARSSGKPGICIATSGPGATNLVSGLADALLDSVPLVAITGQVSRRMIGTDAFQETPIVEVTRSITKHNYLVMDVEDIPRIIEEAFFLATSGRPGPVLVDVPKDIQQQLAIPNWEQAMRLPGYMSRMPKPPEDSHLEQIVRLISESKKPVLYVGGGCLNSSDELGRFVELTGIPVASTLMGLGSYPCDDELSLHMLGMHGTVYANYAVEHSDLLLAFGVRFDDRVTGKLEAFASRAKIVHIDIDSAEIGKNKTPHVSVCGDVKLALQGMNKVLENRAEELKLDFGVWRNELNVQKQKFPLSFKTFGEAIPPQYAIKVLDELTDGKAIISTGVGQHQMWAAQFYNYKKPRQWLSSGGLGAMGFGLPAAIGASVANPDAIVVDIDGDGSFIMNVQELATIRVENLPVKVLLLNNQHLGMVMQWQDRFYKANRAHTFLGDPAQEDEIFPNMLLFAAACGIPAARVTKKADLREAIQTMLDTPGPYLLDVICPHQEHVLPMIPSGGTFNDVITEGDGRIKY"}, "B2": {"name": "P197S-W574L (in one protein): AHAS protein comprising both the P197S and W574L mutation in one ALS protein (protein, listed as Arabidopsis thaliana)", "chain": "B1 chain with W574L"}, "B3": {"name": "W574L: AHAS protein comprising the W574L mutation (protein, listed as Arabidopsis thaliana)", "chain": "B1 chain with S197P, W574L"}},
  "key": {"[1]": {"molecular_target": "AHAS protein comprising the W574L mutation (Arabidopsis thaliana, UniProt P17597, W574L)", "sequence (P17597 56-670 W574L)": "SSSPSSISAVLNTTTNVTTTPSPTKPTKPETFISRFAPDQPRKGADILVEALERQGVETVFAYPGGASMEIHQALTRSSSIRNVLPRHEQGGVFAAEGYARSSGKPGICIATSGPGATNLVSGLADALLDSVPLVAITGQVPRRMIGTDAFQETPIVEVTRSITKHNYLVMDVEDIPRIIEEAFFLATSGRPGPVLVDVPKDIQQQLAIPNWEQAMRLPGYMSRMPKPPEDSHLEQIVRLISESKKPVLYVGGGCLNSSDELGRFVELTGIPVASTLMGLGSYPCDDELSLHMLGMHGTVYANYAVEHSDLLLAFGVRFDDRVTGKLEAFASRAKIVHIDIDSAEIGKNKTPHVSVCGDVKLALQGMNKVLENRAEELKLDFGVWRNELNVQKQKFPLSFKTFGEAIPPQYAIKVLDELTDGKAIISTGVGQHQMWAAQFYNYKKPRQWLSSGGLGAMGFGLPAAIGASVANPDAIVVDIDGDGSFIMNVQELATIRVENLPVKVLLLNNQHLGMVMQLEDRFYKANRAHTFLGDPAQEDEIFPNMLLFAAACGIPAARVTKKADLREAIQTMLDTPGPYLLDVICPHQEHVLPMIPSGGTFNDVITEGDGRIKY", "experiment": "biochemical", "protocol": "(§1) Bacteria are grown at 37° C. in LB-medium containing 100 mg/l carbenicillin and 25 mg/l canamycin, induced with 1 mM isopropyl-β-D-thiogalactopyranoside at an OD600 of 0.6, cultivated for 16 hours at 18° C. and harvested by, e.g., centrifugation. Bacterial pellets are resuspended in 100 mM sodium phosphate buffer pH 7.0 containing 0.1 mM thiamine-pyrophosphate, 1 mM MgCl2, and 1 μM FAD at a concentration of 1 gram wet weight per 25 ml of buffer and disrupted by, e.g., sonification. The crude protein extract obtained after centrifugation is used for ALS activity measurements.\n(§2) ALS protein can be extracted from leaves or tissue cultures, such as B. napus or B. juncea leaves, or B. napus or B. juncea tissue cultures as described by Ray (Plant Physiol, 1984, 75:827-831). An ALS assays can be carried out in 96-well microtiter plates using a modification of the procedure described by Ray (1984): The reaction mixture contains 20 mM potassium phosphate buffer pH 7.0, 20 mM sodium pyruvate, 0.45 mM thiamine-pyrophosphate, 0.45 mM MgCl2, 9 μM FAD. ALS enzyme and various concentrations of ALS inhibitors can be mixed in a final volume of 90 μl. Assays can be initiated by adding enzyme and the assays can be terminated after 75 min incubation at 30° C. by the addition of 40 μl 0.5 M H2SO4."}, "[2]": {"molecular_target": "AHAS protein WT (Arabidopsis thaliana, UniProt P17597)", "sequence (P17597 56-670)": "as the sequence (P17597 56-670 W574L) above, with L519W counted along it", "experiment": "biochemical", "protocol": "as §1, §2"}, "[3]": {"molecular_target": "AHAS protein comprising the P197S mutation (Arabidopsis thaliana, UniProt P17597, P197S)", "sequence (P17597 56-670 P197S)": "as the sequence (P17597 56-670 W574L) above, with P142S, L519W counted along it", "experiment": "biochemical", "protocol": "as §1, §2"}, "[4]": {"molecular_target": "mixture of two ALS proteins, one comprising the P197S and the other the W574L mutation (Arabidopsis thaliana, UniProt P17597, P197S/W574L)", "sequence (P17597 56-670 P197S/W574L)": "as the sequence (P17597 56-670 W574L) above, with P142S counted along it", "experiment": "biochemical"}, "[5]": {"test_system": "Brassica napus hypocotyl derived callus", "experiment": "Selection of hypocotyl derived callus on medium containing Foramsulfuron", "format": "cell-based", "protocol": "Five day old seedlings were used for the preparation of hypocotyl segments 7-10 mm in length. Hypocotyl segments were transferred to 14 cm Petri plates containing 75 ml of M-338 [H76] callus induction medium (25 explants/plate). M-338 [H76] medium is MS salts and vitamins (Murashige and Skoog, 1962), 20 g/l sucrose, 0.5 g/l MES, 0.5 g/l adenine sulphate, 5 mg/l silver nitrate, 0.5 mg/l 2,4-D, 0.2 mg/l kinetin and solidified with 5.5 g/l agarose (pH 5.7). Dishes were sealed and cultured at 24° C. with standard light conditions (16 h/day). After 3 weeks, calli developing at the ends of the explants were transferred to fresh M-338 [H76] plates (25 calli/plate). Calli were subcultured to fresh medium every 3 weeks (larger calli cut into two pieces).\nHypocotyl derived callus (9 weeks old) was used for the selection of herbicide resistant mutants. Small pieces of callus were plated on M-338 [H76] medium containing 25 nM of the ALS inhibitor Foramsulfuron (CAS RN 173159-57-4). […] Dishes were cultured at 24° C. with standard light conditions (16 h/day). After 3 weeks, the calli were divided into 2 pieces each and replated on M-338 [H76] medium containing 50 nM Foramsulfuron. […]"}, "[6]": {"molecular_target": "AHAS protein comprising both the P197S and W574L mutation in one ALS protein (Arabidopsis thaliana, UniProt P17597, P197S/W574L)", "sequence (P17597 56-670 P197S/W574L)": "as the sequence (P17597 56-670 W574L) above, with P142S counted along it", "format": "biochemical", "settings": "both mutations in one ALS protein", "protocol": "as §1, §2"}, "[7]": {"experiment": "Kinetic parameters of enzymatic activity of AHAS proteins", "format": "biochemical", "settings": "enzymatic activity of the AHAS protein", "protocol": "The ALS inhibitor sensitivity and kinetic parameters of AHAS proteins comprising the P197S mutation, the W574L mutation, and both the P197S and W574L mutation in one ALS protein, were determined essentially as described in WO 2013/127766. ALS inhibitor sensitivity of a mixture of two ALS proteins, one of which comprising the P197S and the other comprising the W574L mutations were calculated as described in WO 2013/127766."}},
  "note": "Changes are numbered by the printed parent chain. Names may count otherwise.",
  "data": [
    {"molecule": "COc1cc(OC)nc(NC(=O)NS(=O)(=O)c2cc(NC=O)ccc2C(=O)N(C)C)n1", "note": "[Foramsulfuron, foramsulfuron]", "values": [
      {"measurement": "IC50", "setting": "[1]", "result": 50100, "unit": "nM"},
      {"measurement": "Resistance Factor W574L", "setting": "[1]; AHAS W574L relative to WT", "result": 5888},
      {"measurement": "IC50", "setting": "[2]", "result": 7.94, "unit": "nM"},
      {"measurement": "IC50", "setting": "[3]", "result": 100, "unit": "nM"},
      {"measurement": "Resistance Factor P197S", "setting": "[3]; AHAS P197S relative to WT", "result": 12},
      {"measurement": "IC50", "setting": "[4]", "result": 2510, "unit": "nM"},
      {"measurement": "Resistance Factor P197S & W574L (mixture)", "setting": "[4]; calculated mixture of two ALS proteins, relative to WT", "result": 398},
      {"measurement": "effect on callus growth", "setting": "[5]; 25 nM in M-338 [H76] medium, 9 weeks old hypocotyl derived callus", "result": "partially inhibitory to callus growth but not lethal"},
      {"measurement": "effect on WT tissues", "setting": "[5]; 250 nM in M-338 [H76] medium", "result": "clearly inhibitory to WT tissues"},
      {"measurement": "pI50 P197S-W574L (in one protein)", "setting": "[6]", "result": "<4"},
      {"measurement": "Resistance Factor P197S-W574L (in one protein)", "setting": "[6]; relative to WT", "result": ">11748"}
    ]},
    {"molecule": "B1", "values": [
      {"measurement": "Km", "setting": "[7]", "result": 5.5, "unit": "mM"},
      {"measurement": "Vmax", "setting": "[7]", "result": 50.0, "unit": "deltaOD550/min mg protein"}
    ]},
    {"molecule": "B2", "values": [
      {"measurement": "Km", "setting": "[7]", "result": 31.5, "unit": "mM"},
      {"measurement": "Vmax", "setting": "[7]", "result": 87.7, "unit": "deltaOD550/min mg protein"}
    ]},
    {"molecule": "B3", "values": [
      {"measurement": "Km", "setting": "[7]", "result": 7, "unit": "mM"},
      {"measurement": "Vmax", "setting": "[7]", "result": 54.4, "unit": "deltaOD550/min mg protein"}
    ]}
  ]
}
